Test results: article PMC3606118, “Salvianolic Acid A, a Novel Matrix Metalloproteinase-9 Inhibitor, Prevents Cardiac Remodeling in Spontaneously Hypertensive Rats” (PLoS ONE, 2013)

Assays:
MMP-9 CD = target: T1, MMP-9 CD (Homo sapiens, UniProt P14780, DEL217-390); experiment: Real time binding by surface plasmon resonance (Biacore); conditions: steady state affinity fit model; immobilized MMP-9 CD, 25°C; read-out: equilibrium dissociation constant (KD)
T1 construct: corresponding to residues 107–216 and 391–444; made in house
T1 sequence (P14780 with tags, fused parts or gaps DEL217-390 limits assumed): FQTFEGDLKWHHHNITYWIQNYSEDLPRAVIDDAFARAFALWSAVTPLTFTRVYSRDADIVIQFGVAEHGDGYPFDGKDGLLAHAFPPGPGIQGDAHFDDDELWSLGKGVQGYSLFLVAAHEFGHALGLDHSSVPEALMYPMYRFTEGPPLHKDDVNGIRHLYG
Procedure: DNA fragments encoding the catalytic domain of MMP-9 (MMP-9 CD, corresponding to residues 107–216 and 391–444) were constructed and subcloned into a pET-15b vector (Novagen). […]. Surface plasmon resonance analysis was performed using Biacore 3000 (Biacore AB). In brief, MMP-9 CD protein (5.8 µmol/L) in 10 mmol/L sodium acetate buffer (pH 3.73) was covalently immobilized on the hydrophilic carboxymethylated dextran matrix of the CM5 sensor chip (BIAcore AB) using standard primary amine coupling procedure. Phenolic acid at various concentrations in HBS-EP running buffer (10 mmol/L HEPES pH 7.4, 150 mmol/L NaCl, 3.4 mmol/L EDTA and 0.005% surfactant P20) were injected at a constant flow rate of 30 µL/min at 25°C. All data were analyzed by BIAevaluation software and the sensorgrams were processed by automatic correction for nonspecific bulk refractive index effects.

[1] = test system: neonatal cardiac fibroblast; experiment: Transwell migration of neonatal cardiac fibroblast induced by MMP-9 CD; format: cell-based, Wistar rats; conditions: 1 µmol/L SalA, 200 nmol/L MMP-9 CD, 24 h (MMP-9 alone 85.2±12.4, Con 25.9±2.1)
Procedure: Primary cardiac fibroblast was obtained from neonatal rats and National Institutes of Health (NIH) Guide for the Care and Use of Laboratory Animals was followed throughout. Wistar rats (2–4 day old) were sacrificed by cervical dislocation; ventricles were minced and digested with 0.1% trypsin at 37°C for 8 min. The liberated cells were collected by centrifugations; non-digested chunk materials were further digested in 0.1% trypsin for an additional 8 min. This digestion procedure was repeated 3–4 times. All the liberated cells were pelleted by centrifugation at 1,000 rpm for 10 min, re-suspended in DMEM containing 10% fetal bovine serum (FBS), and cultured in a 100-mm noncoated culture flask at 37°C with 5% CO2 for 2 h. Adherent cardiac fibroblasts were collected and maintained in DMEM supplemented with 10% FBS, 100 U/mL penicillin, 100 µg/mL streptomycin [12]. […]
Transwell assay was employed to evaluate effects of SalA on neonatal cardiac fibroblast migration induced by MMP-9 CD. […] After incubating for 24 h, migrated cells (in the lower side of migration chamber) were stained with 0.1% crystal violet and counted with a microscope at 200 X magnification. Five to six view fields were counted on each membrane. Migration is expressed as the mean value of total number of migrated cells per field.

[2] = test system: neonatal cardiac fibroblasts; experiment: Myofibroblast transformation (α-SMA immunofluorescence) induced by MMP-9 CD; format: cell-based, Wistar rats; conditions: 1 or 10 µmol/L SalA, 200 nmol/L MMP-9 CD, 24 h
Procedure: (§1) Primary cardiac fibroblast was obtained from neonatal rats and National Institutes of Health (NIH) Guide for the Care and Use of Laboratory Animals was followed throughout. Wistar rats (2–4 day old) were sacrificed by cervical dislocation; ventricles were minced and digested with 0.1% trypsin at 37°C for 8 min. The liberated cells were collected by centrifugations; non-digested chunk materials were further digested in 0.1% trypsin for an additional 8 min. This digestion procedure was repeated 3–4 times. All the liberated cells were pelleted by centrifugation at 1,000 rpm for 10 min, re-suspended in DMEM containing 10% fetal bovine serum (FBS), and cultured in a 100-mm noncoated culture flask at 37°C with 5% CO2 for 2 h. Adherent cardiac fibroblasts were collected and maintained in DMEM supplemented with 10% FBS, 100 U/mL penicillin, 100 µg/mL streptomycin [12]. Cardiac fibroblasts were treated by vehicle (Con); 200 nmol/L MMP-9 CD (MMP-9); 200 nmol/L MMP-9 CD plus 1 µmol/L SalA [MMP-9/SalA(1)]; or 200 nmol/L MMP-9 CD plus 10 µmol/L SalA [MMP-9/SalA(10)] for the following research. All the detections were conducted after 24 h treatment.
α-SMA expression was used to evaluate the effect of SalA on myofibroblast transformation from fibroblast induced by MMP-9 CD. Neonatal cardiac fibroblasts were cultured on glass slides until reaching ∼70% confluence. […]

[3] = test system: neonatal cardiac fibroblast; experiment: Multiplex cytokine assay (Procarta) in cardiac fibroblast supernatants; format: cell-based, Wistar rats; conditions: 1 or 10 µmol/L SalA, 24 h
Procedure: as §1
Procarta cytokine profiling kit (Panomics, CA, USA) was used to simultaneously detect 3 different rat cytokines in the cell culture supernatants, according to manufacturer’s instruction. Briefly, 50 µL antibody beads were added to each well of the Filter plate, washed with Wash buffer. Fifty microliter cell culture supernatant was then added to each well, incubated for at least 1 h at room temperature, and washed with Wash buffer. Afterwards, 25 µL per well of the Detection Antibody was added and the Filter plate was shaken at 500 rpm for 30 min at room temperature. After adding Sreptavidin-PE, the signals were detected using a Luminex 200 instrument (Bio-Rad, CA, USA). The cytokines included in the present study were intercellular adhesion molecule (ICAM), interleukin-6 (IL-6), tumor necrosis factor-α (TNF-α and soluble vascular cell adhesion molecule-1 (sVCAM-1).

[4] = Toxicological evaluation of SalA on SHR; format: in vivo, SHR rats
Procedure: 2-month old male SHR rats were given rodent chow containing 8% NaCl 4 weeks before SaA treatment to the end of the experiment. Rats were divided into four groups (20 per group) and were injected intraperitoneally with saline or SalA everyday at the indicated dose for 4 weeks. The four groups were named as SalA (0 mg/kg), SalA (2.5 mg/kg), SalA (5 mg/kg), SalA (10 mg/kg) basing on the dose of SalA, respectively.
After ketamine-xylazine anesthesia (ketamine: xylazine, 60∶5 mg/kg, intramuscularly), heart, liver and kidney samples from experimental animals were fixed with 4% neutral-buffered paraformaldehyde for 24 h. Specimens were paraffin-embedded, sliced at 5 µm, and stained with haematoxylin and eosin. After staining, the sections were rinsed with distilled water, dehydrated, and mounted with Permount. Photomicrographs were taken using an Olympus BX51 microscope plus Olympus DP71 CCD camera (Olympus Corporation). Software Image-Pro Plus version 6.0 was used and approximately 150 cells per heart were measured to determine the average myocyte circumference. Paraffin-embedded slices were also stained with 0.1% picric sirius red (Sigma-Aldrich Inc, St Louis, USA) for fibrillar collagen. Collagen volume fraction (CVF) was expressed as a percentage of the total area of the field occupied by collagen staining.

O=C(/C=C/c1ccc(O)c(O)c1/C=C/c1ccc(O)c(O)c1)O[C@H](Cc1ccc(O)c(O)c1)C(=O)O [SalA, salvianolic acid A]
Kd (MMP-9 CD): 800 nM
migrated cells [1]: 45.3±9.1 cells per field
α-SMA up-regulation (myofibroblast transformation) induced by MMP-9 CD [2]: reversed the effects of MMP-9 CD
ICAM secretion induced by MMP-9 CD [3]: inhibition
IL-6 secretion induced by MMP-9 CD [3]: inhibition
TNF-α secretion induced by MMP-9CD [3]: No significant inhibitory effect
sVCAM-1 secretion induced by MMP-9 CD [3]: inhibition
signs of toxicity or mortality ([4]; intraperitoneally administered to rats for 1 month): failed to induce any signs of toxicity or mortality
body weight, food consumption ([4]; rat, in vivo, 10 mg/kg): no changes
